Laboratory results reported in patent US20100056507A1, “PHENYL DERIVATIVES AND THEIR USE AS A MEDICAMENT” (IPSEN PHARMA S.A.S., priority 2006, published 2010).
pKi: −log10 of the molar value. Where a name gives a salt, the structure may show the parent alone. Read-outs that look alike come from different tables or passages of the source.

Biological target: T1, human CB2 receptors (Homo sapiens, UniProt P34972)
T1 construct: expressed in transfected cells; membranes used
Assay: Affinity for the human CB2 cannabinoid receptors: inhibition of [3H]-CP55940 binding to transfected CHO-K1 cell membranes
Details: [3H]-CP55940 1 nM, CHO-K1 membranes expressing human CB2, Cheng-Prusoff correction
Method: The affinity of the compounds of the invention for the human CB2 receptors is determined by measuring the inhibition of the binding of [^3H]-CP55940 to transfected CHO-K1 cell membrane preparations.
The cells are collected with 0.5 mM of EDTA and centrifuged at 500 g for 5 minutes at 4° C. The pellet is re-suspended in phosphate buffered saline medium (PBS) and centrifuged at 500 g for 5 minutes at 4° C. The pellet is re-suspended in a Tris 50 mM buffer medium at pH 7.4 and centrifuged at 500 g for 5 minutes at 4° C. The cells are lysed by sonication and centrifuged at 39,000 g for 10 minutes at 4° C. The pellet is re-suspended in the Tris 50 mM buffer medium at pH 7.4 and centrifuged at 50,000 g for 10 minutes at 4° C. The membranes obtained in this last pellet are stored at −80° C.
Measurement of the competitive inhibition of the binding of the [^3H]-CP55940 to the CB2 receptors is carried out in duplicate using 96-well polypropylene plates. The cell membranes (10 μg of proteins/well) are incubated with the [^3H]-CP55940 (1 nM) for 60 minutes at 25° C. in a Tris-HCl 50 mM buffer medium, pH 7.4, comprising 0.1% bovine serum albumin (BSA), 5 mM of MgCl2, and 50 μg/ml of bacitracin.
The filters are washed with Tris-HCl 50 mM buffer, pH 7.4 at 0-4° C. and the radioactivity present is determined using a counter (Packard Top Count).
The specific binding is obtained by subtracting the non-specific binding (determined in the presence of 0.1 μM of WIN55212-2 from the total binding). The data are analyzed by computer-assisted non-linear regression (MDL). For each test, a Cheng-Prusoff correction is made in order to convert the IC50 to the inhibition constant, Ki.
where [L] is the concentration of the radioligand used in the test and Kd is the radioligand equilibrium disassociation constant.

T1 sequence (P34972 whole entry): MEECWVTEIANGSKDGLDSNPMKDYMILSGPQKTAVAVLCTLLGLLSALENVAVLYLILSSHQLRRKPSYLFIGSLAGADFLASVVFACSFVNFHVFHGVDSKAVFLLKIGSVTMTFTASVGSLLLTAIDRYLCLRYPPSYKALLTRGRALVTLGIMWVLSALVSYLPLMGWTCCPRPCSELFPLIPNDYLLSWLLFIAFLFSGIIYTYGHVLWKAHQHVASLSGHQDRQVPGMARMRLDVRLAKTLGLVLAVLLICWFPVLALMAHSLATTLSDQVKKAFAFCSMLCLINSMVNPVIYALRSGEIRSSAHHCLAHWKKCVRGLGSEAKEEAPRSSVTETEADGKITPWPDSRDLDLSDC

SMILES | pKi (read-out: Ki < 5 μM) | pKi (read-out: Ki < 0.5 μM)
O=C(OCCc1ccc(NC(=O)C2CCC2)cc1)c1ccc2c(c1)OCCO2 [Example 4] | > 5.30 | 
C=CCNC(=O)Nc1ccc(CNc2nnc(-c3ccc4c(c3)C(C)(C)CCC4(C)C)o2)cc1 [Example 26] | > 5.30 | > 6.30
CC1(C)CCC(C)(C)c2cc(C(=O)OCCc3ccc(NC(=O)Cc4ccccc4)cc3)ccc21 [Example 67] | > 5.30 | > 6.30
CC1(C)CCC(C)(C)c2cc(-c3nnc(CCc4ccc(/N=C(/N)c5cccs5)cc4)o3)ccc21 [Example 6, N′-(4-{2-[5-(5,5,8,8-tetramethyl-5,6,7,8-tetrahydronaphthalen-2-yl)-1,3,4-oxadiazol-2-yl]ethyl}phenyl)thiophene-2-carboximidamide hydrochloride] | > 5.30 | 
O=C(OCCc1ccc(NC(=O)C2CCC2)cc1)c1ccc2c(c1)C(=O)CC2 [Example 38] | > 5.30 | 
CC(=O)Nc1ccc(CCOC(=O)c2ccc3c(c2)C(C)(C)CCC3(C)C)cc1 [Example 54] | > 5.30 | > 6.30
CCCNC(=O)Nc1ccc(Cc2noc(-c3cc(C(C)(C)C)cc(C(C)(C)C)c3)n2)cc1 [Example 21] | > 5.30 | > 6.30
CCNC(=O)Nc1ccc(CCOC(=O)c2ccc3c(c2)C(C)(C)CCC3(C)C)cc1 [Example 81] | > 5.30 | > 6.30
C=CCNC(=O)Nc1ccc(CCc2nnc(-c3ccc4c(c3)C(C)(C)CCC4(C)C)o2)cc1 [Example 32] | > 5.30 | > 6.30
CC1(C)CCC(C)(C)c2cc(-c3nc(CCc4ccc(NC(=O)C5CCC5)cc4)no3)ccc21 [Example 98] | > 5.30 | > 6.30
CCCCC(=O)Nc1ccc(CCOC(=O)c2ccc3c(c2)C(C)(C)CCC3(C)C)cc1 [Example 60] | > 5.30 | > 6.30
CCCC(=O)Nc1ccc(CCOC(=O)c2ccc3c(c2)C(C)(C)CCC3(C)C)cc1 [Example 94] | > 5.30 | > 6.30
C=CCCC(=O)Nc1ccc(CCOC(=O)c2ccc3c(c2)C(C)(C)CCC3(C)C)cc1 [Example 62] | > 5.30 | > 6.30
CC1CC1C(=O)Nc1ccc(CCOC(=O)c2ccc3c(c2)C(C)(C)CCC3(C)C)cc1 (stereo not shown) [Example 88] | > 5.30 | > 6.30
CC1(C)CCC(C)(C)c2cc(C(=O)OCCc3ccc(NC(=O)NCc4ccccc4)cc3)ccc21 [Example 84] | > 5.30 | > 6.30
CC1(C)CCc2cc(C(=O)OCCc3ccc(NC(=O)C4CCC4)cc3)ccc2O1 [Example 42] | > 5.30 | > 6.30
CC(C)(C)c1cc(-c2nnc(NCc3ccc(/N=C(/N)c4cccs4)cc3)o2)cc(C(C)(C)C)c1 [Example 27] | > 5.30 | > 6.30
COCC(=O)Nc1ccc(CCOC(=O)c2ccc3c(c2)C(C)(C)CCC3(C)C)cc1 [Example 85] | > 5.30 | > 6.30
CC1(C)CCC(C)(C)c2cc(C(=O)OCCc3ccc(NS(=O)(=O)C4CC4)cc3)ccc21 [Example 72] | > 5.30 | > 6.30
CCCS(=O)(=O)Nc1ccc(CCOC(=O)c2ccc3c(c2)C(C)(C)CCC3(C)C)cc1 [Example 71] | > 5.30 | > 6.30
C=CCNC(=O)Nc1ccc(CCc2nnc(-c3cc(C(C)(C)C)cc(C(C)(C)C)c3)o2)cc1 [Example 17] | > 5.30 | > 6.30
CCC(=O)Nc1ccc(CCOC(=O)c2ccc3c(c2)C(C)(C)CCC3(C)C)cc1 [Example 55] | > 5.30 | > 6.30
CC(C)NC(=O)Nc1ccc(CCOC(=O)c2ccc3c(c2)C(C)(C)CCC3(C)C)cc1 [Example 73] | > 5.30 | > 6.30
O=C(OCCc1ccc(NC(=O)C2CCC2)cc1)c1ccc2c(c1)C(=O)CCC2 [Example 7] | > 5.30 | 
Cc1cc2c(cc1C(=O)OCCc1ccc(NC(=O)C3CCC3)cc1)C(C)(C)CCC2(C)C [Example 49] | > 5.30 | > 6.30
CC1(C)CCC(C)(C)c2cc(C(=O)OCCc3ccc(NC(=O)Cc4cccs4)cc3)ccc21 [Example 68] | > 5.30 | > 6.30
CC1(C)CCC(C)(C)c2cc(C(=O)OCCc3ccc(NC(=O)C4CCCCC4)cc3)ccc21 [Example 65] | > 5.30 | > 6.30

SMILES | pKi (read-out: Ki < 5 μM) | pKi (read-out: Ki < 0.5 μM)
CC1(C)CCNc2ccc(C(=O)OCCc3ccc(NC(=O)C4CCC4)cc3)cc21 [Example 50] | > 5.30 | > 6.30
CC(C)(C)c1cc(-c2nnc(CCc3ccc(/N=C(/N)c4cccs4)cc3)o2)cc(C(C)(C)C)c1 [Example 22] | > 5.30 | > 6.30
CC1(C)CCC(C)(C)c2cc(C(=O)OCCc3ccc(NS(C)(=O)=O)cc3)ccc21 [Example 69, 2-{4-[(methylsulphonyl)amino]phenyl}ethyl 5,5,8,8-tetramethyl-5,6,7,8-tetrahydronaphthalene-2-carboxylate] | > 5.30 | > 6.30
C=CCNC(=O)Nc1ccc(CNc2nnc(-c3cc(C(C)(C)C)cc(C(C)(C)C)c3)o2)cc1 [Example 24] | > 5.30 | > 6.30
CCC(C)C(=O)Nc1ccc(CCOC(=O)c2ccc3c(c2)C(C)(C)CCC3(C)C)cc1 (stereo not shown) [Example 95] | > 5.30 | > 6.30
CC1(C)CCC(C)(C)c2cc(-c3nnc(NCc4ccc(/N=C(/N)c5cccs5)cc4)o3)ccc21 [Example 28] | > 5.30 | 
CC1(C)CCC(C)(C)c2cc(C(=O)OCCc3ccc(NC(=O)C4CC4)cc3)ccc21 [Example 63] | > 5.30 | > 6.30
CCCNC(=O)Nc1ccc(CCc2nnc(-c3ccc4c(c3)C(C)(C)CCC4(C)C)o2)cc1 [Example 33] | > 5.30 | > 6.30
CC1(C)CCC(C)(C)c2cc(-c3nnc(CCc4ccc(NC(=O)C5CCC5)cc4)s3)ccc21 [Example 51] | > 5.30 | > 6.30
Cc1cc2c(cc1C(=O)OCCc1ccc(NC(=O)C3CCC3)cc1)C(C)(C)CC(C)C2(C)C (stereo not shown) [Example 45] | > 5.30 | > 6.30
CC(C)CC(=O)Nc1ccc(CCOC(=O)c2ccc3c(c2)C(C)(C)CCC3(C)C)cc1 [Example 58] | > 5.30 | > 6.30
CC(C)(C)NC(=O)Nc1ccc(CCOC(=O)c2ccc3c(c2)C(C)(C)CCC3(C)C)cc1 [Example 74] | > 5.30 | > 6.30
CC1(C)CCC(C)(C)c2cc(C(=O)OCCc3ccc(NC(=O)NC4CCC4)cc3)ccc21 [Example 97] | > 5.30 | > 6.30
CN1CCOc2cc(C(=O)OCCc3ccc(NC(=O)C4CCC4)cc3)ccc21 [Example 10] | > 5.30 | > 6.30
C=CCNC(=O)Nc1ccc(Cc2nnc(-c3cc(C(C)(C)C)cc(C(C)(C)C)c3)o2)cc1 [Example 13] | > 5.30 | > 6.30
COCCC(=O)Nc1ccc(CCOC(=O)c2ccc3c(c2)C(C)(C)CCC3(C)C)cc1 [Example 86] | > 5.30 | > 6.30
CC1(C)CCC(C)(C)c2cc(-c3nnc(CCc4ccc(NC(=O)C5CCC5)cc4)o3)ccc21 [Example 31] | > 5.30 | > 6.30
C=CCNC(=O)Nc1ccc(Cc2noc(-c3cc(C(C)(C)C)cc(C(C)(C)C)c3)n2)cc1 [Example 20] | > 5.30 | > 6.30
CC(C)(C)C(=O)Nc1ccc(CCOC(=O)c2ccc3c(c2)C(C)(C)CCC3(C)C)cc1 [Example 57] | > 5.30 | > 6.30
CC(C)(C)CC(=O)Nc1ccc(CCOC(=O)c2ccc3c(c2)C(C)(C)CCC3(C)C)cc1 [Example 59] | > 5.30 | > 6.30
C=CCNC(=O)Nc1ccc(CCc2nnc(-c3ccc4c(c3)C(C)(C)CCC4(C)C)s2)cc1 [Example 52] | > 5.30 | > 6.30
CCCNC(=O)Nc1ccc(CCOC(=O)c2ccc3c(c2)C(C)(C)CCC3(C)C)cc1 [Example 29, 2-(4-{[(propylamino)carbonyl]amino}phenyl)ethyl 5,5,8,8-tetramethyl-5,6,7,8-tetrahydronaphthalene-2-carboxylate] | > 5.30 | > 6.30
CCCNC(=O)Nc1ccc(CCc2nnc(-c3ccc4c(c3)C(C)(C)CCC4(C)C)s2)cc1 [Example 53] | > 5.30 | > 6.30
CC(C)(C)c1cc(-c2nnc(CCc3ccc(NC(=O)C4CCC4)cc3)o2)cc(C(C)(C)C)c1 [Example 16] | > 5.30 | > 6.30
CC(C)(C)c1cc(-c2nnc(Cc3ccc(NC(=O)C4CCC4)cc3)o2)cc(C(C)(C)C)c1 [Example 12] | > 5.30 | > 6.30
CC(C)(C)c1cc(-c2nnc(CCc3ccc(NC(=O)C4CCC4)cc3)s2)cc(C(C)(C)C)c1 [Example 46] | > 5.30 | > 6.30
CC1(C)CCC(C)(C)c2cc(C(=O)OCCc3ccc(NC(=O)CC4CCCC4)cc3)ccc21 [Example 66] | > 5.30 | > 6.30
